This note sets out measurements from US8653070B2, “Hepatitis C virus inhibitors” (Enanta Pharmaceuticals, Inc., priority 2009, dated 2014).

As usually defined, the EC50 is the midpoint of the concentration-response curve.

For this experiment, the system named is HCV 1b genotype replicon. Description: HCV replicon assay (qRT-PCR or luciferase), genotype-1b replicon. Type of experiment: cell-based. To be noted: Hepatitis C virus, HCV 1b replicon. The source says: HCV replicon cell lines (kindly provided by R. Bartenschlager) isolated from colonies as described by Lohman et. al. (Lohman et al. (1999) Science 285: 110-113, expressly incorporated by reference in its entirety) and used for all experiments. The HCV replicon has the nucleic acid sequence set forth in EMBL Accession No.: AJ242651, the coding sequence of which is from nucleotides 1801 to 8406.
The coding sequence of the published HCV replicon was synthesized and subsequently assembled in a modified plasmid pBR322 (Promega, Madison, Wis.) using standard molecular biology techniques. One replicon cell line (“SGR 11-7”) stably expresses HCV replicon RNA which consists of (i) the HCV 5′UTR fused to the first 12 amino acids of the capsid protein, (ii) the neomycin phosphotransferase gene (neo), (iii) the IRES from encephalomyocarditis virus (EMCV) and (iv) HCV NS2 to NS5B genes and the HCV 3′UTR. Another replicon cell line (“Huh-luc/neo-ET”) described by Vrolijk et. al. (Vrolijk et. al. (2003) Journal of Virological Methods 110:201-209, expressly incorporated by reference in its entirety) stably expresses HCV replicon RNA which consists of (i) the HCV 5′UTR fused to the first 12 amino acids of the capsid protein, (ii) the firefly luciferase reporter gene, (iii) the ubiquitin gene, (iv) the neomycin phosphotransferase gene (neo), (v) the IRES from encephalomyocarditis virus (EMCV) and (vi) HCV NS3 to NS5B genes that harbor cell culture adaptive mutations (E1202G, T12801, K1846T) and the HCV 3′UTR.
These cell lines are maintained at 37° C., 5% CO2, 100% relative humidity in DMEM (Cat#11965-084, Invitrogen), with 10% fetal calf serum (“FCS”, Invitrogen), 1% non-essential amino acids (Invitrogen), 1% of Glutamax (Invitrogen), 1% of 100× penicillin/streptomycin (Cat#15140-122, Invitrogen) and Geneticin (Cat#10131-027, Invitrogen) at 0.75 mg/ml or 0.5 mg/ml for 11-7 and Huh-luc/neo-ET cells, respectively.
EC50 values of single agent compounds and combinations are determined by HCV RNA detection using quantitative RT-PCR, according to the manufacturer's instructions, with a TAQMAN® One-Step RT-PCR Master Mix Reagents Kit (Cat# AB 4309169, Applied Biosystems) on an ABI Model 7500 thermocycler. The TAQMAN primers to use for detecting and quantifying HCV RNA obtained from Integrated DNA Technologies. HCV RNA is normalized to GAPDH RNA levels in drug-treated cells, which is detected and quantified using the Human GAPDH Endogenous Control Mix (Applied Biosystems, AB 4310884E). Total cellular RNA is purified from 96-well plates using the RNAqueous 96 kit (Ambion, Cat# AM1812). Chemical agent cytotoxicity is evaluated using an MTS assay according to the manufacturer's directions (Promega).
Since clinical drug resistance often develops in viral infections following single agent therapies, there is a need to assess the additive, antagonistic, or synergistic properties of combination therapies. We used the HCV replicon system to assess the potential use of the compound of the present invention or in combination therapies with Interferon alpha, cyclosporine analogs and inhibitors targeting other HCV proteins. The acute effects of a single or combinations of drugs are studied in the “Huh-luc/neo-ET” replicon with each chemical agent titrated in an X or Y direction in a 6 point two-fold dilution curve centered around the EC50 of each drug. Briefly, replicon cells are seeded at 7,000 cells per well in 90 ul DMEM (without phenol red, Invitrogen Cat.#31053-036) per well with 10% FCS, 1% non-essential amino acids, 1% of Glutamax and 1% of 100× penicillin/streptomycin and incubated overnight at 37° C., 5% CO2, 100% relative humidity. […]
A general note: Replicon systems follow genome replication, usually without infectious particles.

Where [1] appears, read: read-out: Genotype-1b replicon EC50.
Setting [2] is: read-out: Genotype-1b replicon EC50 Range.

Like-named read-outs stand apart in the source and are kept apart here.

In the case of `C=C1C[C@@H](c2nc3cc(C#Cc4ccc(-c5c[nH]c([C@@H]6CCCN6C(=O)[C@@H](NC(=O)OC)C(C)C)n5)cc4)ccc3[nH]2)N(C(=O)[C@@H](NC(=O)OC)C(C)C)C1` [Example 83], the EC50 reads like this: under setting [1], 0.0057 nM; under setting [2], < 0.01 nM.

Regarding `C=C1C[C@@H](c2nc(-c3ccc(-c4ccc(-c5c[nH]c([C@@H]6CCCN6C(=O)[C@@H](NC(=O)OC)C(C)C)n5)cc4)cc3)c[nH]2)N(C(=O)[C@@H](NC(=O)OC)C(C)C)C1` [Example 252], the EC50 under setting [1] amounted to 0.0112 nM and the EC50 under setting [2] was 0.01 to 1 nM. Regarding `C=C1C[C@@H](c2nc(-c3ccc(C#Cc4ccc5[nH]c([C@@H]6CCCN6C(=O)[C@@H](NC(=O)OC)C(C)C)nc5c4)cc3)c[nH]2)N(C(=O)[C@@H](NC(=O)OC)C(C)C)C1` [Example 300], the EC50 was 0.0044 nM under setting [1] and < 0.01 nM under setting [2]. As for `CON=C1C[C@@H](c2nc3cc(C#Cc4ccc(-c5c[nH]c([C@@H]6CCCN6C(=O)[C@@H](NC(=O)OC)C(C)C)n5)cc4)ccc3[nH]2)N(C(=O)[C@@H](NC(=O)OC)C(C)C)C1` [Example 316], under setting [2], the EC50 was < 0.01 nM.

In the case of `C=C1C[C@@H](c2nc(-c3ccc(C#Cc4ccc5[nH]c([C@@H]6C[C@@]7(CCCO7)CN6C(=O)[C@@H](NC(=O)OC)C(C)C)nc5c4)cc3)c[nH]2)N(C(=O)[C@@H](NC(=O)OC)C(C)C)C1` [Example 319], under setting [2], the EC50 lay within 0.01 to 1 nM. With `C=C1C[C@@H](c2nc(-c3ccc(C#Cc4ccc5[nH]c([C@@H]6C[C@@]7(CCOC7)CN6C(=O)[C@@H](NC(=O)OC)C(C)C)nc5c4)cc3)c[nH]2)N(C(=O)[C@@H](NC(=O)OC)C(C)C)C1` [Example 321], the EC50 under setting [2] was 0.01 to 1 nM.

Regarding `C=C1C[C@@H](c2nc(-c3ccc(C#Cc4ccc5[nH]c([C@@H]6C[C@]7(CCOC7)CN6C(=O)[C@@H](NC(=O)OC)C(C)C)nc5c4)cc3)c[nH]2)N(C(=O)[C@@H](NC(=O)OC)C(C)C)C1` [Example 323], the EC50 was 0.0092 nM under setting [1] and < 0.01 nM under setting [2].

Consider `C=C1C[C@@H](c2nc(-c3ccc(C#Cc4ccc5[nH]c([C@@H]6CC7(CC7)CN6C(=O)[C@@H](NC(=O)OC)C(C)C)nc5c4)cc3)c[nH]2)N(C(=O)[C@@H](NC(=O)OC)C(C)C)C1` [Example 325], for which the EC50 reads like this: under setting [1], 0.0059 nM; under setting [2], < 0.01 nM. Turning to `C=C1C[C@@H](c2nc(-c3ccc(C#Cc4ccc5[nH]c([C@@H]6C[C@@]7(CC=CCO7)CN6C(=O)[C@@H](NC(=O)OC)C(C)C)nc5c4)cc3)c[nH]2)N(C(=O)[C@@H](NC(=O)OC)C(C)C)C1` [Example 327], the EC50 under setting [2] is < 0.01 nM. Same read-out and setting: as for `C=C1C[C@@H](c2nc(-c3ccc(C#Cc4ccc5[nH]c([C@@H]6C[C@]7(CCCOC7)CN6C(=O)[C@@H](NC(=O)OC)C(C)C)nc5c4)cc3)c[nH]2)N(C(=O)[C@@H](NC(=O)OC)C(C)C)C1` [Example 329], the figure is < 0.01 nM. Regarding `C=C1C[C@@H](c2nc(-c3ccc(C#Cc4ccc5[nH]c([C@@H]6C[C@@]7(CCCOC7)CN6C(=O)[C@@H](NC(=O)OC)C(C)C)nc5c4)cc3)c[nH]2)N(C(=O)[C@@H](NC(=O)OC)C(C)C)C1` [Example 331], the EC50 reads like this: under setting [1], 0.0137 nM; under setting [2], 0.01 to 1 nM. The matching figures for `COC(=O)N[C@H](C(=O)N1CCC[C@H]1c1nc(-c2ccc(C#Cc3ccc4[nH]c([C@@H]5CC(=C6CC6)CN5C(=O)[C@@H](NC(=O)OC)C(C)C)nc4c3)cc2)c[nH]1)C(C)C` [Example 334]: 0.013 nM and 0.01 to 1 nM.

`C=C1C[C@@H](c2nc(-c3ccc(C#Cc4ccc5[nH]c([C@@H]6CC(=C)CN6C(=O)[C@@H](NC(=O)OC)C(C)C)nc5c4)cc3)c[nH]2)N(C(=O)[C@@H](NC(=O)OC)C(C)C)C1` [Example 336]: the EC50 runs as follows: under setting [1], 0.0064 nM; under setting [2], < 0.01 nM.
